Experimental data from ChEMBL document CHEMBL1126912 (J Med Chem, 1993).
pKi: −log10 of the molar value.

Legend:
[1] = target: T1, Muscarinic acetylcholine receptor M1 (Rattus norvegicus, UniProt P08482); experiment: Affinity constant measured against M1 muscarinic receptor in rat cortex
T1 sequence (P08482 whole entry): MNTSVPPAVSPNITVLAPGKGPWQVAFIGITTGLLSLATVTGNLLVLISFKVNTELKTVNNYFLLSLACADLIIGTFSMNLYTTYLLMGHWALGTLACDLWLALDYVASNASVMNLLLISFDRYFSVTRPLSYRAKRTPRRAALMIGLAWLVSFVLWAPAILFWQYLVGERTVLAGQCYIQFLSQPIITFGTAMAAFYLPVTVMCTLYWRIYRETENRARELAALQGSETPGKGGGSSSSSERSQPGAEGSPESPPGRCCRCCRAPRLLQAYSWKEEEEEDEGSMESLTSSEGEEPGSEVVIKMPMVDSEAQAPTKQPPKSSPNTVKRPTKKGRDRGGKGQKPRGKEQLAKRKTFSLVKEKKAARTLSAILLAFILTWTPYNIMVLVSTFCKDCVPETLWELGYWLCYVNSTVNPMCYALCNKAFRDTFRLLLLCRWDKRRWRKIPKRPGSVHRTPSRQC

[2] = target: Muscarinic acetylcholine receptor M3 (Cavia porcellus, UniProt Q8VH26); experiment: Antagonistic activity measured in isolated guinea pig […] (M3 receptor); assay type: functional, tissue-based; settings: read-out: pA2 (converted)
[3] = target: Muscarinic acetylcholine receptor M3 (Rattus norvegicus, UniProt P08483); experiment: Affinity constant measured against M3 muscarinic receptor in rat submaxillary gland; assay type: tissue-based
[4] = target: T2, Muscarinic acetylcholine receptor M4 (Rattus norvegicus, UniProt P08485); experiment: Affinity constant measured against M4 muscarinic receptor rat NG108-15 cells; assay type: cell-based
T2 sequence (P08485 whole entry): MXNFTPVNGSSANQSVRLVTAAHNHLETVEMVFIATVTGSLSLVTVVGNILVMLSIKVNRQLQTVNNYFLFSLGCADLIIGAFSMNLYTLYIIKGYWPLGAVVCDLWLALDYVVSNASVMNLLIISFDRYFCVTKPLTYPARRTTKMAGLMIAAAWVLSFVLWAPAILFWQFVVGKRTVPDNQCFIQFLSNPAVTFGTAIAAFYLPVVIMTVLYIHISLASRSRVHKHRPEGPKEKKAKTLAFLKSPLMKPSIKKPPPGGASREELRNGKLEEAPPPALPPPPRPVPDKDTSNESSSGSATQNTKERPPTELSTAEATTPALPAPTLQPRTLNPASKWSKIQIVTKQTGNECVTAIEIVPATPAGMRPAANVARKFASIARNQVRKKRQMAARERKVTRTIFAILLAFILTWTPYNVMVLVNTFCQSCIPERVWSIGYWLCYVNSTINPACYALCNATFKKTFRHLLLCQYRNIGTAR

[5] = target: T3, Muscarinic acetylcholine receptor M2 (Homo sapiens, UniProt P08172); experiment: Antagonistic activity measured in isolated guinea pig left atrium (M2 receptor); assay type: functional, tissue-based, Cavia porcellus, Cardiac atrium; settings: target entry is the homologue from another species; read-out: pA2 (converted)
T3 sequence (P08172 whole entry): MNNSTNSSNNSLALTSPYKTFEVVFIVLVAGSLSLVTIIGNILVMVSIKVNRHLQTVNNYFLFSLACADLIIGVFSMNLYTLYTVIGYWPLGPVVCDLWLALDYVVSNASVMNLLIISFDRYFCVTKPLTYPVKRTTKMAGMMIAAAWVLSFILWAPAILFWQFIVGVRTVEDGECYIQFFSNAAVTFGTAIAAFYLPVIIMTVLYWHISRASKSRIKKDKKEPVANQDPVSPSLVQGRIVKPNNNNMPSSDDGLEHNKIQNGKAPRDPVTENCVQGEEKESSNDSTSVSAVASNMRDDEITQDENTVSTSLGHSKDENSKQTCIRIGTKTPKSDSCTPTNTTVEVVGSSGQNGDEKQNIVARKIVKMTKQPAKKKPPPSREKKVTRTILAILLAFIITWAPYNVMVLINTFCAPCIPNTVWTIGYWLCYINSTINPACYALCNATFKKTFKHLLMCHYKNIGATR

[6] = test system: Muscarinic acetylcholine receptors M2 & M3 (Cavia porcellus); experiment: Selectivity ratio between atrium (M2) and ileum (M3) was determined

Muscarinic acetylcholine receptor M3 (Cavia porcellus, UniProt Q8VH26), sequence (Q8VH26 whole entry): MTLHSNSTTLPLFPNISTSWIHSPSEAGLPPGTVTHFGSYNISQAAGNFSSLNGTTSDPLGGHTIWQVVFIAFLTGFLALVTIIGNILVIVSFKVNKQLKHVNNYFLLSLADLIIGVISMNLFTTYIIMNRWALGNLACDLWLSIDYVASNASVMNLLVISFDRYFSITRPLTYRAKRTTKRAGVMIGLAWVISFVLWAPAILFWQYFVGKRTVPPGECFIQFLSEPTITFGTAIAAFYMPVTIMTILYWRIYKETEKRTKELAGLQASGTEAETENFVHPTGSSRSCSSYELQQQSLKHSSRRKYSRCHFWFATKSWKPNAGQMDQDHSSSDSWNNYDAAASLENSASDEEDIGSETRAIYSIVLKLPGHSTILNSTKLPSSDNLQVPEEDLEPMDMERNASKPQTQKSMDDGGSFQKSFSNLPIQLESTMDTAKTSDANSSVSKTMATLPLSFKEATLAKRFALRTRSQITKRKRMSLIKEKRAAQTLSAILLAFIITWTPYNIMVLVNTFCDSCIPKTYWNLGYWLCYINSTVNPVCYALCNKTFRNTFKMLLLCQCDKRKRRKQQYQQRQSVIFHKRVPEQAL
Muscarinic acetylcholine receptor M3 (Rattus norvegicus, UniProt P08483), sequence (P08483 whole entry): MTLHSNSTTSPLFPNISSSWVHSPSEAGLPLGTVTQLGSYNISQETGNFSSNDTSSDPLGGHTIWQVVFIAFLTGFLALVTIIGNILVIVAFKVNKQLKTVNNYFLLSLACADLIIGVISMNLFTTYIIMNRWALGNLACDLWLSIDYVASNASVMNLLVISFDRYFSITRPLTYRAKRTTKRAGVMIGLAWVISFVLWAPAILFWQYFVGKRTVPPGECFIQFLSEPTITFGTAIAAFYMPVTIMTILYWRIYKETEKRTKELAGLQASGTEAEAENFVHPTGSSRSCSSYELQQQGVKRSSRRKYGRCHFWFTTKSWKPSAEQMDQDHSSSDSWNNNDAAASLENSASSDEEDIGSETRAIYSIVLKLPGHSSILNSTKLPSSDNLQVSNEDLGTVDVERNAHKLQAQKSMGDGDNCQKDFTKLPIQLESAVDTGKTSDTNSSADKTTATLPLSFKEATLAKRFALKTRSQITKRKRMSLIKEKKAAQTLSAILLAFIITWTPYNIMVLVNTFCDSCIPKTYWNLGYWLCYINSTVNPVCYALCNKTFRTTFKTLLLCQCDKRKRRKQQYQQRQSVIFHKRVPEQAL

Kb [2] | pKi [3] | pKi [4] | Compound | pKi [1] | Kb [5] | Selectivity ratio [6]
479 nM | 5.96 | 7.58 | COc1ccccc1CNCCCCCCNCCCCCCCCNCCCCCCNCc1ccccc1OC [METHOCTRAMINE] |  |  | 
126 nM |  |  | CN(CCCCCCCCN(C)CCCCCCNCC(=O)N1c2ccccc2C(=O)Nc2cccnc21)CCCCCCNCC(=O)N1c2ccccc2C(=O)Nc2cccnc21 |  | 0.724 nM | 
251 nM | 6.80 | 8.00 | CCN(CC)CCCCC1CCN(CC(=O)N2c3ccccc3C(=O)Nc3cccnc32)CC1 | 7.60 |  | 

Compound | Kb [2] | pKi [3] | pKi [4] | pKi [1] | Kb [5] | Selectivity ratio [6]
CN(CCCCCCCCN(C)CCCCCCN(CC(=O)N1c2ccccc2C(=O)Nc2cccnc21)CC(=O)N1c2ccccc2C(=O)Nc2cccnc21)CCCCCCNCC(=O)N1c2ccccc2C(=O)Nc2cccnc21 [TRIPITRAMINE] | 282 nM | 6.19 | 7.93 | 7.63 |  | 
COc1ccccc1CNCCCCCCN(C)CCCCCCCCN(C)CCCCCCNCc1ccccc1OC | 603 nM |  |  |  | 12.6 nM | 48
